Some results are limits rather than exact numbers.

The first data set relates to ulceration. Put plainly: Water-immersion, restraint stress ulcerogenic testing. In kind it is in vivo, Wister male rats. As to conditions: Rattus norvegicus, Table 1, suspended in 0.5% CMC, one hour prior to stressing, water immersion restraint six hours, rats. On the procedure:
1. Water-immersion, restraint stress ulcerogenic testing
Wister male rats (11-week age) fasted for 18 hours were placed in a restraint cage, which was in turn immersed to a depth of the pectoral region in water at 20° to 22° C. to leave the rats under stress for six hours. Then, the rats were drawn up from the water and put down by vertebral dislocation. Afterwards, the stomach was removed, infused with 50 ml of a 5% aqueous solution of formalin and was wholly immersed in the same solution for 30 minutes for fixation. The fixed sample was dissected along the curvatura ventriculi major, and the ulcerated regions were measured along their major length (in mm) by means of slide calipers. The total sum of the measurements per rat is a value of ulceration. The compounds under test, suspended in 0.5% carboxymethylcellulose (CMC), were administered to the rats at a single dose of 5 ml/kg body weight (corresponding to 30 mg/kg body weight of the compound) one hour prior to the stressing. To a control group, only 0.5% CMC was administrated at a dose of 5 ml/kg weight. The rate of depression of ulceration was calculated according to the following equation: [formula]
Regarding `[O-][S+](CCc1ccccn1)c1nc2cccnc2s1` (stereo not shown) [Example 125, 2-[2(pyridin-2-yl)-ethylsulfinyl]thiazolo[4,5-]pyridine], testing at 30 mg/kg gave an inhibition in vivo of 44%.
Regarding `CCOCC[S+]([O-])c1nc2cccnc2s1` (stereo not shown) [Example 121], at 30 mg/kg the inhibition in vivo was 67%.
`[O-][S+](CCN1CCOCC1)c1nc2ncccc2[nH]1` (stereo not shown) [Example 143, 2-[(2-morpholinoethyl)sulfinyl]imidazo[4,5-b]pyridine] registered an inhibition in vivo at 30 mg/kg of 54%.
Take `CC1(C)CCCC(C)(C)N1CC[S+]([O-])c1nc2ncc(C(F)(F)F)cc2s1` (stereo not shown) [Example 133]: the inhibition in vivo at 30 mg/kg amounted to 98%.
The same measure, in the same setting: the figure for `CCOCC[S+]([O-])c1nc2cnccc2s1` (stereo not shown) [Example 123, 2-[(2-ethoxymethyl)sulfinyl]thiazolo[4,5-c]pyridine] is 15%; for `O=C1NCC(C[S+]([O-])c2nc3cccnc3s2)O1` (stereo not shown) [Example 126, 2-[(2-oxazolidion-5-yl)methylsulfinyl]thiazolo[5,4-b]pyridine] it is 60%.
`CC(C)=CC[S+]([O-])c1nc2cccnc2s1` (stereo not shown) [Example 127, 2-[(3-methyl-2-butenyl)sulfinyl]thiazolo[5,4-b]pyridine]: testing at 30 mg/kg gave an inhibition in vivo of 0%.
For `C=CCOC(=O)C[S+]([O-])c1nc2cccnc2s1` (stereo not shown) [Example 89, 2-[(allyloxvcarbonylmethyl)sulfinyl]thiazolo[5,4-b]pyridine], the inhibition in vivo at 30 mg/kg came out at 72%.
As to `CC(C)N(CC[S+]([O-])c1nc2cnccc2s1)C(C)C` (stereo not shown) [Example 130], the inhibition in vivo at 30 mg/kg amounted to 76%.
Same read-out and setting: the figure for `CC(C)N(CC[S+]([O-])c1nc2ncc(C(F)(F)F)cc2s1)C(C)C` (stereo not shown) [Example 131] is 71%; for `CCOC(=O)C[S+]([O-])c1nc2cccnc2s1` (stereo not shown) [Example 128, 2-[(ethoxycarbonylmethyl)sulfinyl]thiazolo[5,4-b]pyridine] it is 91%; for `C/C=C/COC(=O)C[S+]([O-])c1nc2cccnc2s1` (stereo not shown) [Example 84, 2-[(crotyloxycarbonylmethyl)sulfinyl]thiazolo[5,4-b]pyridine] it is 75%.
On the same count and under the same terms, the figure for `CN1CCN(CCC[S+]([O-])c2nc3cccnc3s2)CC1` (stereo not shown) [Example 151, 2-[(3-(1-methylpiperazin-4-yl)propyl)sulfinyl]thiazolo[5,4-b]pyridine] is 39%.
The same measure, in the same setting: next, `CC1(C)CCCC(C)(C)N1CCSc1nc2cccnc2o1` [Example 48, 2-[(2-(2,2,6,6-tetramethylpiperidin-1-yl)ethyl)thio]oxazolo[5,4-b]pyridine]: 99%; `CN1CCCC1CCSc1nc2cccnc2s1` (stereo not shown) [Example 70, 2-[(2-(1-methylpyrrolidin-2-yl)ethyl)thio]thiazolo[5,4-b]pyridine]: 42%.
As for `[O-][S+](CCN1CCOCC1)c1nc2cccnc2s1` (stereo not shown) [Example 138], the inhibition in vivo at 30 mg/kg amounted to 68%.
In turn, `COC(=O)C[S+]([O-])c1nc2cccnc2s1` (stereo not shown) [Example 93, 2-[(methoxycarbonylmethyl)sulfinyl]thiazolo[5,4-b]pyridine] showed an inhibition in vivo at 30 mg/kg of 73%.
The same measure, in the same setting: next, `CCOCC[S+]([O-])c1nc2cccnc2[nH]1` (stereo not shown) [Example 124]: 25%; `CCCCOC(=O)C[S+]([O-])c1nc2cccnc2s1` (stereo not shown) [Example 79, 2-[(n-butoxycarbonylmethyl)sulfinyl]thiazolo[5,4-b]pyridine]: 76%.
The compound `CCOCC[S+]([O-])c1nc2cc(Cl)cnc2s1` (stereo not shown) [Example 122] displayed an inhibition in vivo at 30 mg/kg of 13%.
On the same count and under the same terms, next, `CN1CCCC1CCS(=O)(=O)c1nc2cccnc2s1` (stereo not shown) [Example 145, 2-[(2-(1-methylpyrrolidin-2-yl)ethyl)sulfonyl]thiazolo[5,4-b]pyridine]: 68%.
On the same count and under the same terms, next, `c1cnc2sc(SCCN3CCOCC3)nc2c1` [Example 65, 2-[(2-morpholinoethyl)thio]thiazolo[5,4-b]pyridine]: 58%; `[O-][S+](CCN1CCOCC1)c1nc2cnccc2s1` (stereo not shown) [Example 140]: 58%.
On the same count and under the same terms, next, `O=S(=O)(CCN1CCOCC1)c1nc2cccnc2s1` [Example 139]: 47%; `CC(C)N(CCS(=O)(=O)c1nc2cccnc2s1)C(C)C` [Example 150, 2-[(2-di-isooropylaminoethyl)sulfonyl]thiazolo[5,4-b]pyridine]: 61%.
Turning to `O=C(C[S+]([O-])c1nc2cccnc2s1)NC1CCCCC1` (stereo not shown) [Example 117, 2-[(N-cyclohexylcarbamoylmethyl)sulfinyl]thiazolo[5,4-b]pyridine], the inhibition in vivo at 30 mg/kg came out at 77%.
Same read-out and setting: next, `CN1CCCC1CC[S+]([O-])c1nc2cccnc2s1` (stereo not shown) [Example 144, 2-[(2-(1-methylpyrrolidin-2-y1)ethyl)sulfinyl]thiazolo[5,4-b]pyridine]: 85%; `CN1CCCC(C[S+]([O-])c2nc3cccnc3s2)C1` (stereo not shown) [Example 147, 2-[(1-methylpiperidin-3-yl)methylsulfinyl]thiazolo[5,4-b]pyridine]: 64%; `CC1(C)CCCC(C)(C)N1CCSc1nc2ncccc2o1` [Example 47, 2-[(2-(2,2,6,6-tetramethylpiperidin-1-yl)ethyl)thio]oxazolo[4,5-b]pyridine]: 99%.
`CC(C)N(CCSc1nc2ncccc2o1)C(C)C` [Example 51, 2-[(2-di-isopropylaminoethyl)thio]oxazolo[4,5-b]pyridine] came in with an inhibition in vivo at 30 mg/kg of 88%.
On the same count and under the same terms, the figure for `CC(C)N(CC[S+]([O-])c1nc2cccnc2s1)C(C)C` (stereo not shown) [Example 149, 2-[(2-di-isopropylaminoethvl)sulfinyl]thiazolo[5,4-b]pyridine] is 99%; for `CC1(C)CCCC(C)(C)N1CC[S+]([O-])c1nc2cccnc2s1` (stereo not shown) [Example 129, 2-[{2-(2,2,6,6-tetramethylpiperidin-1-yl)ethyl)sulfinyl]thiazolo[5,4-b]pyridine] it is 99%; for `CCN(CC)CC[S+]([O-])c1nc2cccnc2s1` (stereo not shown) [Example 141] it is 41%.
For `CC(=O)OCC[S+]([O-])c1nc2cccnc2s1` (stereo not shown) [Example 110, 2-[(2-acetoxyethyl)sulfinyl]thiazolo[5,4-b]pyridine], testing at 30 mg/kg gave an inhibition in vivo of 79%.
The compound `CN1CCC([S+]([O-])c2nc3cccnc3s2)CC1` (stereo not shown) [Example 148, 2-[(1-methylpiperidin-4-yl)sulfinyl]thiazolo[5,4-b]pyridine] registered an inhibition in vivo at 30 mg/kg of 78%.
In turn, `NC(=O)C[S+]([O-])c1nc2cccnc2s1` (stereo not shown) [Example 135, 2-[(carbamoylmethyl)sulfinyl]thiazolo[5,4-b]pyridine] registered an inhibition in vivo at 30 mg/kg of 86%.
Still for that read-out and setting: next, `CC(C)N(CC[S+]([O-])c1nc2ncccc2s1)C(C)C` (stereo not shown) [Example 136]: 94%.
Take `[O-][S+](CCN1CCOCC1)c1nc2cc(Cl)cnc2s1` (stereo not shown) [Example 142]: testing at 30 mg/kg gave an inhibition in vivo of 13%.
Still for that read-out and setting: next, `CCOC(=O)C[S+]([O-])c1nc2ncccc2s1` (stereo not shown) [Example 104, 2-[(ethoxycarbonylmethyl)sulfinyl]thiazolo[4,5-b]pyridine]: 68%; `Cn1nnnc1C[S+]([O-])c1nc2cccnc2s1` (stereo not shown) [Example 120, 2-[((1-methyltetrazol-5-yl)methyl)sulfinyl]thiazolo[5,4-b]pyridine]: 86%; `CC(C)COC(=O)C[S+]([O-])c1nc2cccnc2s1` (stereo not shown) [Example 101, 2-[(isobutoxycarbonylmethyl)sulfinyl]thiazolo[5,4-b]pyridine]: 75%.
The same measure, in the same setting: the figure for `Cn1nnnc1CCCC[S+]([O-])c1nc2cccnc2s1` (stereo not shown) [Example 100, 2-[(4-(1-methyltetrazol-5-y1)butyl)sulfinyl]thiazolo[5,4-b]pyridine] is 95%.
Take `C[S+]([O-])c1nc2cccnc2s1` (stereo not shown) [Example 103, 2-methylsulfinylthiazolo[5,4-b]pyridine]: 30 mg/kg produced 84% inhibition in vivo.

The data set is the same for the next values; noted with them: Table 1; 30 mg/kg, suspended in 0.5% CMC, one hour prior to stressing; water immersion restraint six hours; rats.
On to “2-[(2-ureidoethyl)sulfinyl]thiazolo[5,4-b]pyridine [Example 146]”, for which the “% Ulceration Inhibition” value is listed as 19%.

A further data set concerns ulceration. The experiment in a line: Ethanol-induced ulceration. In kind it is in vivo, Donryu masculine rats. As to conditions: 30 mg/kg oral, in 0.5% CMC, one hour prior to 100% ethanol; control nearly 100% erosion; rats. On the procedure:
2. Ethanol-induced ulceration
Five (5) ml/kg of 100% ethanol was orally administrated to Donryu masculine rats fasted for 48 hours and dehydrated for 24 hours. One hour later, the rats were put down in similar manners as mentioned above test to remove and treat the stomach. The compounds under test, suspended in 0.5% CMC, were orally administered to the rats at a dose of 5 ml/kg body weight (corresponding to 30 mg/kg body weight of that compound) one hour prior to the administration of ethanol.
Take `CCCCOC(=O)C[S+]([O-])c1nc2cccnc2s1` (stereo not shown) [Example 79, 2-[(n-butoxycarbonylmethyl)sulfinyl]thiazolo[5,4-b]pyridine]: the depression of erosion worked out at 98%.

Staying with this data set, now noted: Table 2; 30 mg/kg oral, in 0.5% CMC, one hour prior to 100% ethanol; rats.
Turning to `CCOC(=O)C[S+]([O-])c1nc2cccnc2s1` (stereo not shown) [Example 128, 2-[(ethoxycarbonylmethyl)sulfinyl]thiazolo[5,4-b]pyridine], the “% Ulceration Inhibition” value is given as 99%.
With `[O-][S+](CCN1CCOCC1)c1nc2cccnc2s1` (stereo not shown) [Example 138], the “% Ulceration Inhibition” value was 97%.
In the case of `CCCCOC(=O)C[S+]([O-])c1nc2cccnc2s1` (stereo not shown) [Example 79, 2-[(n-butoxycarbonylmethyl)sulfinyl]thiazolo[5,4-b]pyridine], the “% Ulceration Inhibition” value is reported as 98%.
On the same count and under the same terms, the figure for `CC(C)N(CC[S+]([O-])c1nc2cccnc2s1)C(C)C` (stereo not shown) [Example 149, 2-[(2-di-isopropylaminoethvl)sulfinyl]thiazolo[5,4-b]pyridine] is 94%.

Tested on in a further data set: not listed separately
The experiment in a line: Toxicity (LD50). As to conditions: mouse, in vivo; mice, oral. From the text: The compounds of the present invention are of low toxicity, as appreciated from Example Compound Nos. 79, 104 and 133 having up to 1 g/kg of LD50 value (mice, by an oral).
As for `CC1(C)CCCC(C)(C)N1CC[S+]([O-])c1nc2ncc(C(F)(F)F)cc2s1` (stereo not shown) [Example 133], the LD50 is no less than 1000 mg/kg.
The same measure, in the same setting: the figure for `CCCCOC(=O)C[S+]([O-])c1nc2cccnc2s1` (stereo not shown) [Example 79, 2-[(n-butoxycarbonylmethyl)sulfinyl]thiazolo[5,4-b]pyridine] is no less than 1000 mg/kg; for `CCOC(=O)C[S+]([O-])c1nc2ncccc2s1` (stereo not shown) [Example 104, 2-[(ethoxycarbonylmethyl)sulfinyl]thiazolo[4,5-b]pyridine] it is no less than 1000 mg/kg.

The record behind these values is patent publication US5200407A, “Azole derivatives and anti-ulcerative composition containing same” (Meiji Seika Kaburhiki Kaisha, priority 1989, dated 1993).
